According to the NIST ThermoML archive (doi:10.1021/je049918m):
Several values for one entry are separate records, joined by “and”; a condition that tells them apart may be missing. Identical values can stand only once.

Details: Liquid, Falling or rolling sphere viscometry

O [water]
Details | viscosity
255.65 K, 177500 kPa | 2.945 mPa·s
255.65 K, 190300 kPa | 2.955 mPa·s
255.65 K, 196700 kPa | 2.959 mPa·s
255.65 K, 201800 kPa | 2.964 mPa·s
255.65 K, 231800 kPa | 3.003 mPa·s
255.65 K, 257800 kPa | 3.056 mPa·s
255.65 K, 292300 kPa | 3.135 mPa·s
255.65 K, 321100 kPa | 3.217 mPa·s
258.15 K, 159300 kPa | 2.678 mPa·s
258.15 K, 188400 kPa | 2.69 mPa·s
258.15 K, 205200 kPa | 2.708 mPa·s
258.15 K, 209200 kPa | 2.71 mPa·s
258.15 K, 239800 kPa | 2.754 mPa·s
258.15 K, 282600 kPa | 2.834 mPa·s
258.15 K, 309000 kPa | 2.898 mPa·s
258.15 K, 323500 kPa | 2.934 mPa·s
258.15 K, 333200 kPa | 2.957 mPa·s
258.15 K, 354100 kPa | 3.019 mPa·s
258.15 K, 361000 kPa | 3.033 mPa·s
263.15 K, 112000 kPa | 2.258 mPa·s
263.15 K, 112100 kPa | 2.258 mPa·s
263.15 K, 128600 kPa | 2.247 mPa·s
263.15 K, 150800 kPa | 2.244 mPa·s
263.15 K, 180700 kPa | 2.256 mPa·s
263.15 K, 209900 kPa | 2.281 mPa·s
263.15 K, 240100 kPa | 2.315 mPa·s
263.15 K, 270500 kPa | 2.357 mPa·s
263.15 K, 302000 kPa | 2.415 mPa·s
263.15 K, 335400 kPa | 2.481 mPa·s
263.15 K, 386400 kPa | 2.605 mPa·s
268.15 K, 61100 kPa | 1.969 mPa·s
268.15 K, 80800 kPa | 1.942 mPa·s
268.15 K, 98000 kPa | 1.927 mPa·s
268.15 K, 100200 kPa | 1.926 mPa·s
268.15 K, 124200 kPa | 1.914 mPa·s
268.15 K, 151100 kPa | 1.913 mPa·s
268.15 K, 177500 kPa | 1.924 mPa·s
268.15 K, 213300 kPa | 1.949 mPa·s
268.15 K, 245400 kPa | 1.982 mPa·s
268.15 K, 295300 kPa | 2.047 mPa·s
268.15 K, 350800 kPa | 2.138 mPa·s
268.15 K, 376700 kPa | 2.19 mPa·s
268.15 K, 387900 kPa | 2.212 mPa·s
273.15 K, 100 kPa | 1.799 mPa·s and 1.802 mPa·s
273.15 K, 30700 kPa | 1.722 mPa·s
273.15 K, 60400 kPa | 1.678 mPa·s
273.15 K, 90700 kPa | 1.653 mPa·s
273.15 K, 120600 kPa | 1.644 mPa·s
273.15 K, 150300 kPa | 1.649 mPa·s
273.15 K, 180000 kPa | 1.659 mPa·s
273.15 K, 209600 kPa | 1.678 mPa·s
273.15 K, 240300 kPa | 1.704 mPa·s
273.15 K, 270400 kPa | 1.735 mPa·s
273.15 K, 300400 kPa | 1.771 mPa·s
273.15 K, 330300 kPa | 1.81 mPa·s
273.15 K, 359500 kPa | 1.852 mPa·s
273.15 K, 386700 kPa | 1.893 mPa·s
278.15 K, 100 kPa | 1.528 mPa·s
278.15 K, 600 kPa | 1.527 mPa·s
278.15 K, 30700 kPa | 1.481 mPa·s
278.15 K, 60700 kPa | 1.454 mPa·s
278.15 K, 90500 kPa | 1.44 mPa·s
278.15 K, 120300 kPa | 1.439 mPa·s
278.15 K, 150800 kPa | 1.444 mPa·s
278.15 K, 180700 kPa | 1.456 mPa·s
278.15 K, 210700 kPa | 1.476 mPa·s
278.15 K, 240400 kPa | 1.498 mPa·s
278.15 K, 270400 kPa | 1.522 mPa·s
278.15 K, 300600 kPa | 1.555 mPa·s
278.15 K, 330300 kPa | 1.591 mPa·s
278.15 K, 360000 kPa | 1.631 mPa·s
278.15 K, 389000 kPa | 1.672 mPa·s
283.15 K, 100 kPa | 1.313 mPa·s and 1.31 mPa·s
283.15 K, 500 kPa | 1.31 mPa·s
283.15 K, 30700 kPa | 1.28 mPa·s
283.15 K, 60700 kPa | 1.264 mPa·s
283.15 K, 90700 kPa | 1.257 mPa·s
283.15 K, 120800 kPa | 1.257 mPa·s
283.15 K, 150800 kPa | 1.263 mPa·s
283.15 K, 180800 kPa | 1.275 mPa·s
283.15 K, 210200 kPa | 1.293 mPa·s
283.15 K, 240600 kPa | 1.314 mPa·s
283.15 K, 270700 kPa | 1.337 mPa·s
283.15 K, 300200 kPa | 1.362 mPa·s
283.15 K, 330000 kPa | 1.39 mPa·s
283.15 K, 359200 kPa | 1.42 mPa·s
283.15 K, 385200 kPa | 1.45 mPa·s
298.15 K, 100 kPa | 0.892 mPa·s and 0.893 mPa·s
298.15 K, 31000 kPa | 0.888 mPa·s
298.15 K, 61000 kPa | 0.888 mPa·s
298.15 K, 90900 kPa | 0.891 mPa·s
298.15 K, 120700 kPa | 0.898 mPa·s
298.15 K, 150600 kPa | 0.907 mPa·s
298.15 K, 180600 kPa | 0.919 mPa·s
298.15 K, 210600 kPa | 0.933 mPa·s
298.15 K, 240600 kPa | 0.948 mPa·s
298.15 K, 270100 kPa | 0.965 mPa·s
298.15 K, 299700 kPa | 0.983 mPa·s
298.15 K, 329200 kPa | 1.002 mPa·s
298.15 K, 358500 kPa | 1.022 mPa·s
298.15 K, 384300 kPa | 1.042 mPa·s
